Data on three compounds can be found in US20080187927A1, “USING HUG1 PROMOTER AND A REPORTER GENE TO DETECT GENOTOXICITY AND GENOPROTECTION” (priority 2006, published 2008).

Where a name gives a salt, the structure may show the parent alone. Read-outs that look alike come from different tables or passages of the source.

Series [1] deals with SPY1101 (HUG1P-GFP). An excerpt: Yeast having a HUG1-GFP promoter/reporter construct (called SPY1101; genotype is W303 MA:Ta/a ura3-52/ura3-52 his3::hisG/his3::hisG leu2::hisG/leu2::hisG HUG1P-GFP::HIS3/HUG1P-HUG1) were derived from S. cerevisiae strain SPY810 (wild-type yeast; genotype is W303 MATa/a ura3-52/ura3-52 his3::hisG/his3::hisG/leu2::hisG/leu2::hisG) using a PCR-based gene deletion method. Longtine M, et al., “Additional modules for versatile and economical PCR-based gene deletion and modification in Saccharomyces cerevisiae,” Yeast 14:953-961 (1998), incorporated herein by reference as if set forth in its entirety. Briefly, plasmid pFA6a-GFP(S65T)-His3MX6 (kindly provided by John Pringle at The University of North Carolina at Chapel Hill (Chapel Hill, N.C.); see also, Longtine et al., supra.), which contains GFP-S65T, was isolated from Escherichia coli DHα with a QIAprep Spin Miniprep Kit (Qiagen; Santa Clarita, Calif.).
Yeast from Example 1 (SPY1101) were exposed to the genotoxins shown in Table 2, which included alkylating agents, oxidizing agents, ribonucleotide reductase inhibitors, UV mimetic agents, glycopeptide antibiotics, quinoline-based alkaloids and ionizing radiation. Each genotoxin was added directly to a culture of SPY1101. Fresh phleomycin (Sigma) was aliquoted in water at a concentration of 20 mg/ml and stored at −20° C. until culture exposure. Likewise, CPT (Sigma) was aliquoted in dimethylsulfoxide (DMSO) at a concentration of 10 mg/ml and stored at −20° C. until culture exposure. All samples exposed to CPT were adjusted with DMSO, such that the final concentration of DMSO in the culture was 1% (v/v), regardless of CPT dose. γ-ray exposure was done using a Cs^137 source (exposure was 7 Gy/min and ended when the desired dose was reached). For all genotoxins (except γ-ray), exposure was continuous.
All DNA damage experiments included a minimum of three independent trials. SPY1101 were grown in rich medium (see, Sherman, supra) at 30° C. and with gentle shaking at 250 rpm to mid log-phase and then diluted to an OD600 of 0.1. After dilution, the culture was divided into 10 ml aliquots for exposure to one of the DNA damaging agents listed above. One culture aliquot was treated as a control and received no genotoxin, while the other aliquots each received one of seven different doses of the genotoxin, as listed in Table 2. In addition, SPY810 (wild-type control) were similarly treated. All cultures were then returned to 30° C. for incubation.
One hour after exposure, 1 ml of each culture was removed, and the OD600 was recorded to monitor culture growth. The cells were washed in PBS, re-suspended in fresh PBS to an OD600 of 0.2 and then placed in the dark on ice until flow cytometry analysis. This process was repeated every hour until eight hours had passed since the initial genotoxin exposure. The process was also repeated at twenty-four hours after initial genotoxin exposure.
Flow cytometry analysis was conducted as follows. For each replicate, at least 10,000 cells were analyzed for fluorescence using a flow cytometer (Becton Dickinson; Franklin Lakes, N.J.), and GFP induction analysis was performed with CellQuest™ and Flow-Jo software. Surviving cells were defined as whole cells (measured with light scattering) with intact cellular membranes (measured by exclusion of propidium iodide). All surviving cells were gated and used to measure GFP expression of the population. GFP expression histograms were prepared with WinMDI (available on the world wide web), using a live/dead gate based on propidium iodide exclusion. Histograms were created using a smoothing setting of 5.
SPY1101 were also exposed to general cell stress. All general cell stress experiments consisted of a minimum of three independent trials. SPY1101 were grown in rich medium at 30° C. and with gentle shaking at 250 rpm to mid log-phase and then diluted to an OD600 of 0.1. After dilution, the culture was divided into aliquots.

The subject of series [2] is SPY810 (wild-type yeast). Briefly: Fluorescence of wild-type control yeast SPY810 after genotoxin exposure. The class given is cell-based, S. cerevisiae. Conditions: 0.01% MMS for six hours. How it is done: In addition, SPY810 (wild-type control) were similarly treated.
Flow cytometry analysis was conducted as follows. […] Histograms were created using a smoothing setting of 5.

In series [3] the test system is SPY1102 (mag1Δ). Put plainly: Viability of SPY1102 after genotoxin exposure. The class given is cell-based, S. cerevisiae. Conditions: after four hours of exposure.
The test system of series [4] is SPY1103 (mre11aΔ). Put plainly: Viability of SPY1103 after genotoxin exposure. The class given is cell-based, S. cerevisiae. The note with it: exposed to MMS.
The subject of series [5] is SPY1102 (mag1Δ, HUG1P-GFP).
Method: (§1) Briefly, two hours after exposure, 1 ml of each culture-was removed and the OD600 was recorded to monitor cell proliferation. The cells were then washed in PBS and re-suspended to an OD600 of 0.2, and placed in the dark on ice until flow cytometry analysis. This process was repeated after 4, 6 and 8 hours after exposure.
For series [6], the system named is SPY1103 (mre11aΔ, HUG1P-GFP).
Method: Yeast having a MRE11 deletion (SPY1103; also called mre11aΔ) were created from SPY1101.
as §1
The test system of series [7] is SPY1105 (mag1Δ/mre11bΔ, HUG1P-GFP).
Method: as §1

`C=O` [formaldehyde]: the “dose-dependent GFP expression” value in series [1] (doses of Table 2, up to 24 h) was “No dose-dependent induction of GFP expression”.
In the case of `COS(C)(=O)=O` [MMS, methyl methanesulfonate], the Relative Fluorescence in series [1] (0.0005% MMS (dose-response)) was 4; in series [1] (dose 0.0005%, exposure 6 h), 2.4; in series [5] (0.0005% MMS) it was 34; in series [5] (dose 0.0001%, exposure 4 h), 3.0; in series [6] (dose 0.0005%, exposure 6 h) it was 2.7; in series [7] (dose 0.0001%, exposure 4 h), 2.2. Besides, the “increase of fluorescence compared to untreated cells” value in series [1] (0.0005% MMS, after 6 hours) worked out at 2.4 fold. Besides, in series [1] (0.005% MMS), the fluorescence upregulation is 97 fold. Also, the “optimum (peak) fluorescence” value in series [1] (0.01% MMS) is listed as 1.48 fold. The “increase of fluorescence (minimum induction time)” value in series [1] (0.01% MMS, after 75 minutes) is 3 fold. Moreover, in series [2], the “fluorescence of wild type control” value was “did not fluoresce”. Further, in series [3], the “viability compared to SPY810 or SPY1101” value is recorded as “less viable”. Also, in series [4], the “viability compared to SPY1101” value is listed as “no difference in viability”. The compound also came in with a peak fluorescence in series [5] (0.005% MMS) of 154 fold. For the same compound, the “fluorescence induction at peak fluorescence” value in series [6] (MMS, at its peak fluorescence) is recorded as 49 fold. In series [7] (0.005% MMS (peak)), this compound showed a relative fluorescence induction of 49 fold.
Regarding `Cl` [HCl], the “maximum induction of GFP fluorescence” value in series [1] (1, 5, 10 or 15% (v/v) 1 N HCl, positive threshold >2 fold) is on record as 1.5 fold.
